The source made the active and inactive calls.
Columns and labels:
[1] = biological target: T1, Probable nicotinate-nucleotide adenylyltransferase (Staphylococcus aureus (strain N315), UniProt P65502); format: functional, Staphylococcus aureus subsp. aureus N315; conditions: read-out: IC50_Mean;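 on IC50 Mean: confirmatory dose-response retesting of NadD inhibitor hits first found in an ultra-high-throughput screen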
[2] = biological target: Prothrombin (Homo sapiens, UniProt P00734); assay: Thrombin 1536 HTS Dose Response Confirmation. [Related pubchem assays: 1046 (Thrombin 1536 HTS; hits were confirmed in this assay)]; format: functional
[3] = viability of uninfected HEp-2 cells – cell-based, HTS, cytotoxicity control for RSV inhibitor project, dose response (AID 2410); format: functional; conditions: human respiratory syncytial virus
[4] = biological target: T1, Probable nicotinate-nucleotide adenylyltransferase; format: functional, Staphylococcus aureus subsp. aureus N315
[5] = viability loss in HEK293 cells – cell-based, plate reader, cherry-picked samples, cytotoxicity control, dose response (AID 743446); format: functional
[6] = luciferase reporter signal suppression in cells – H4 neuroglioma cells, luminescence, dose response (AID 1990); format: functional, cell-based
[7] = tested on: HEK293; assay: EBV LMP1 TES2 canonical NF-kB signalling blockers – cell-based, HEK293, luciferase, cherry-pick, dose response (AID 588343); format: functional; conditions: Homo sapiens
[8] = alpha-synuclein stem-loop luciferase translation blockers – H4 neuroglioma cells, luminescence, confirmation (AID 1988); format: functional, cell-based
[9] = blockers of bursicon-stimulated LGR2 cAMP reporter – cell-based, HEK293, CRE-luciferase reporter, cherry pick, set 2, dose response (AID 743343); format: functional;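 further: transfected cells were stimulated with diluted bursicon conditioned medium after compound addition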
[10] = blockade of melanocortin 4 receptor signaling – cell-based, plate reader, cherry pick, counter-screen for LGR2 antagonist project, dose response (AID 743444); format: functional;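 further: transfected HEK 293 cells stimulated with alpha-MSH peptide; potency of inhibitors of the alpha-MSH evoked signal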
[11] = Luminescence Cell-Based Dose Response HTS to Identify Inhibitors of 5'UTR Stem-Loop Driven Prion Protein mRNA Translation in H4 Neuroglioblastoma Cells. [Related pubchem assays: 1827 (Project Summary), 1813 (Primary HTS)]; format: functional
[12] = biological target: T2, Apoptotic protease-activating factor 1 (Homo sapiens, UniProt O14727); format: functional
T2 sequence (O14727 whole entry): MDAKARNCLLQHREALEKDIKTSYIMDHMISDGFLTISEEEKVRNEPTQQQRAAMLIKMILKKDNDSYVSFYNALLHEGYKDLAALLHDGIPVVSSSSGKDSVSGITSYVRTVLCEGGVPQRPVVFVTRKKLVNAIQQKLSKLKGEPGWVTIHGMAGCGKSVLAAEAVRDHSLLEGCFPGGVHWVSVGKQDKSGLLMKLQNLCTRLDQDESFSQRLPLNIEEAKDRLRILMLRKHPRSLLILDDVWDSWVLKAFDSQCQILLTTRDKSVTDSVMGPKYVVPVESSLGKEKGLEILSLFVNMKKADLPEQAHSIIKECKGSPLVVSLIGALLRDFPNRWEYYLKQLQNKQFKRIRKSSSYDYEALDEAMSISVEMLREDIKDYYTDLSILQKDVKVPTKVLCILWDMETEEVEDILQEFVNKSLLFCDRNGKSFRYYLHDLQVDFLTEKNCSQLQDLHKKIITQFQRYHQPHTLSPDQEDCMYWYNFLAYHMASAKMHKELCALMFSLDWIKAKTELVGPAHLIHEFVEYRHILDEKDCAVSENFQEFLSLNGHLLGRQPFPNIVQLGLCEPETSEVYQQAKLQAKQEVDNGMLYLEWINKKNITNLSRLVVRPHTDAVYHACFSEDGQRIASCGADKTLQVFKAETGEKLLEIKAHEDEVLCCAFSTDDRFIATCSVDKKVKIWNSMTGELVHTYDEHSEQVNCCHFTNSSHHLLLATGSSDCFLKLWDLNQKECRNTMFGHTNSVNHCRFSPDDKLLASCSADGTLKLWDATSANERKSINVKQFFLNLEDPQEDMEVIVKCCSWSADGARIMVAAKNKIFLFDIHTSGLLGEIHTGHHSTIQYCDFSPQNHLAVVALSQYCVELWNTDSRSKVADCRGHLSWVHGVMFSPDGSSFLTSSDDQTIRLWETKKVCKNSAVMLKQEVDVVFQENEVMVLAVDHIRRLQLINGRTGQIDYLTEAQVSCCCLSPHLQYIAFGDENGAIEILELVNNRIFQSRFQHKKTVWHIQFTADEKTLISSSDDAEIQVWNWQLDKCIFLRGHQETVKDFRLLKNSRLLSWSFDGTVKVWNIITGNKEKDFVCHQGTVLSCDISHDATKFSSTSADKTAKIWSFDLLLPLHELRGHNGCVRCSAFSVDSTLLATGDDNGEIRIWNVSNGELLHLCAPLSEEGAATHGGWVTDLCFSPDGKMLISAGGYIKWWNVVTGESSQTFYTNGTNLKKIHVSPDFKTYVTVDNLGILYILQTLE

[13] = biological target: T3, Protein RecA (Mycobacterium tuberculosis, UniProt P9WHJ3); assay: Fluorescence Cell-Free Homogeneous Dose Retest to Identify Inhibitors of RecA-Intein Splicing Activity. [Related pubchem assays (depositor defined):AID2097, AID2223, AID489010, AID492950]; format: functional
T3 sequence (P9WHJ3 whole entry): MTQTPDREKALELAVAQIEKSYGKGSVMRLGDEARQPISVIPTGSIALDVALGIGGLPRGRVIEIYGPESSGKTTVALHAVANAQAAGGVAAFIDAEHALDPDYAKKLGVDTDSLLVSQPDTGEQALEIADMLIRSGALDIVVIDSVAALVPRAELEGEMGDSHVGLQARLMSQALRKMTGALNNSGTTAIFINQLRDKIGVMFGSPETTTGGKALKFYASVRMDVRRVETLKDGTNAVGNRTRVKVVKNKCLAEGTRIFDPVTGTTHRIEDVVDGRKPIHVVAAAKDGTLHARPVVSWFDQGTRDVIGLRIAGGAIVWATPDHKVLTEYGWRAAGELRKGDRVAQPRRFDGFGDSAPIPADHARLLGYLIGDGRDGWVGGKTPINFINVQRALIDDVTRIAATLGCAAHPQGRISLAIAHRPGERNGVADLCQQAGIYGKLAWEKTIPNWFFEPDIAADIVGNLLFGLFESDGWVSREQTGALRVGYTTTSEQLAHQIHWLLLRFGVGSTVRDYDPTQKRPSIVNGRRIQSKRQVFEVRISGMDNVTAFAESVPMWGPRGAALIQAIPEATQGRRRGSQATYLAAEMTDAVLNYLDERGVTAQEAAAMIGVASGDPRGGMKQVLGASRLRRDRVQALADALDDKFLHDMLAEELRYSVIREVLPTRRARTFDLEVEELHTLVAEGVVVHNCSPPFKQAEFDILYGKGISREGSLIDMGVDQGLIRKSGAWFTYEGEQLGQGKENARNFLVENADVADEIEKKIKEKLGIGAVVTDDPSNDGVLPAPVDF

[14] = biological target: T4, Replicative DNA helicase DnaB (Mycobacterium tuberculosis, UniProt P9WMR3); assay: DnaB intein splicing inhibitors, dose response, biochemical, cell-free fluorescence (AID 449749); format: functional
T4 sequence (P9WMR3 whole entry): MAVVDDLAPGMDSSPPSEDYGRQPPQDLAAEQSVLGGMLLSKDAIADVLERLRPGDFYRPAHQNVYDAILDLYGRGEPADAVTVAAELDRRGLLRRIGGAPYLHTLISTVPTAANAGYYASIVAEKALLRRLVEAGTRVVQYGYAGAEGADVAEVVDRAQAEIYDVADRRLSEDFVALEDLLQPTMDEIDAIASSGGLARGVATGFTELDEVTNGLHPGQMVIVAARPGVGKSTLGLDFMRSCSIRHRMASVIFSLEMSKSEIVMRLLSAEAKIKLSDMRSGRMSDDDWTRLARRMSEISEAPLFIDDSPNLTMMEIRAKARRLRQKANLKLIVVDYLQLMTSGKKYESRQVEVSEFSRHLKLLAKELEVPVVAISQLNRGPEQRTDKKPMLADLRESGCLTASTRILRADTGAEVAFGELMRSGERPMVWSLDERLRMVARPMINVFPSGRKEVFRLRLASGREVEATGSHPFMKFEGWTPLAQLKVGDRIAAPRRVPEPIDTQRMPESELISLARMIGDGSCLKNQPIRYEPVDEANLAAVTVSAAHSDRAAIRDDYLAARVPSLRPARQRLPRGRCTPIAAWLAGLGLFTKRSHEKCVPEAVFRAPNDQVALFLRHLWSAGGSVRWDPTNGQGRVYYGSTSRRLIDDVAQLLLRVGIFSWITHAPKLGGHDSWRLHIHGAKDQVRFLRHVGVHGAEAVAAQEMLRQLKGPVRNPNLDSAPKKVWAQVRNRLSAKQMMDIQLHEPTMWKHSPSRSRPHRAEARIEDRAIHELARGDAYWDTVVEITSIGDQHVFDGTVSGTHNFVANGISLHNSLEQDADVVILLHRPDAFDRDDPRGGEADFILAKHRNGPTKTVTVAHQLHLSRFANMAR

[15] = biological target: Glucose-6-phosphate 1-dehydrogenase (Homo sapiens, UniProt P11413); assay: inhibition of Homo sapiens G6PD, dose series – biochemical, fluorescence, selectivity assay for P. falciparum G6PD inhibitor project, dose response (AID 504792); format: functional
Chain of Glucose-6-phosphate 1-dehydrogenase (P11413 whole entry): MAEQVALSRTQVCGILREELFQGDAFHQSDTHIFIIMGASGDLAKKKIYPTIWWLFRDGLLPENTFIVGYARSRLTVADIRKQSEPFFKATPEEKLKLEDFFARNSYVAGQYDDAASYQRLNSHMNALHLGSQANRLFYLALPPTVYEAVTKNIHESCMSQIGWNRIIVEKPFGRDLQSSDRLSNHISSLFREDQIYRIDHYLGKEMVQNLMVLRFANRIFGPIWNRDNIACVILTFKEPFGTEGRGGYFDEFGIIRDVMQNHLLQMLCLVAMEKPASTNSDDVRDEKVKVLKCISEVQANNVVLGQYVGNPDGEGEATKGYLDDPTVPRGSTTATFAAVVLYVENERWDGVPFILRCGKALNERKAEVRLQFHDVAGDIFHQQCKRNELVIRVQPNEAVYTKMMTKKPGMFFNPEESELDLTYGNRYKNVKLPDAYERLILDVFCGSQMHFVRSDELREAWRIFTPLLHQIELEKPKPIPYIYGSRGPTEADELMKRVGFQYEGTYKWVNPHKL

[16] = tested on: P388/ADR; assay: cells; format: functional; conditions: Mus musculus
[17] = tested on: SN12K1; assay: cells; format: functional; conditions: Homo sapiens
[18] = tested on: P388; assay: cells; format: functional; conditions: Mus musculus
[19] = biological target: Disintegrin and metalloproteinase domain-containing protein 17 (Homo sapiens, UniProt P78536); assay: exosite inhibitors of ADAM17, dose response, biochemical (AID 743260)
Chain of Disintegrin and metalloproteinase domain-containing protein 17 (P78536 whole entry, the tested form may be a part): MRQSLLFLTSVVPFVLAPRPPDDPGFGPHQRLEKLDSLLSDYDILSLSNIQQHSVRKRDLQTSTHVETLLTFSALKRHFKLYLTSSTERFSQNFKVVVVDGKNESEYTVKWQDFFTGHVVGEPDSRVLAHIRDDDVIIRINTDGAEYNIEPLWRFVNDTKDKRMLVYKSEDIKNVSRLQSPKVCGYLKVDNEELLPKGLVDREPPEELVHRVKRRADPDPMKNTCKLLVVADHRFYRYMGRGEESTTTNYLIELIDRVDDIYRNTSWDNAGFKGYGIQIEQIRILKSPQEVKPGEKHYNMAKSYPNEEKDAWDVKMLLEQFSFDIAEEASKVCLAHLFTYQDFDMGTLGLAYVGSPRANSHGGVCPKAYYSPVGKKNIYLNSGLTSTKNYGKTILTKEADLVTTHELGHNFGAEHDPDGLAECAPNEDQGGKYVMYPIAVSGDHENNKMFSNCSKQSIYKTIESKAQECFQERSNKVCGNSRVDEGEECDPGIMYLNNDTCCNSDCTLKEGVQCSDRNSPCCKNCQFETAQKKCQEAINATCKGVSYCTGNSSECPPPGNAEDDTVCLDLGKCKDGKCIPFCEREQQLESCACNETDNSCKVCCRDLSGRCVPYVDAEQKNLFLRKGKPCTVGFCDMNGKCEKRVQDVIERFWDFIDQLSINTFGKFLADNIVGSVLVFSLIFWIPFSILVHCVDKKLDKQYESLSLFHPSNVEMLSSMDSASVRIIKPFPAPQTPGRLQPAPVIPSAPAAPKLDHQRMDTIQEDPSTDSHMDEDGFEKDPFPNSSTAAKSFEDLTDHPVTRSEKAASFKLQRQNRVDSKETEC

[20] = biological target: T5, Heat shock factor protein 1 (Mus musculus, UniProt P38532); assay: enhancement of HSF1-driven luciferase signal – cell-based, NIH3T3, luminescence, dose retest, confirmation (AID 435004); format: functional;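 further: stress induced by proteasome inhibitor MG132 added 30 min after compound; luciferase reporter driven by HSF1 response element in NIH3T3 cells; actives raise luminescence as potentiators of the MG132 stress response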
T5 sequence (P38532 whole entry): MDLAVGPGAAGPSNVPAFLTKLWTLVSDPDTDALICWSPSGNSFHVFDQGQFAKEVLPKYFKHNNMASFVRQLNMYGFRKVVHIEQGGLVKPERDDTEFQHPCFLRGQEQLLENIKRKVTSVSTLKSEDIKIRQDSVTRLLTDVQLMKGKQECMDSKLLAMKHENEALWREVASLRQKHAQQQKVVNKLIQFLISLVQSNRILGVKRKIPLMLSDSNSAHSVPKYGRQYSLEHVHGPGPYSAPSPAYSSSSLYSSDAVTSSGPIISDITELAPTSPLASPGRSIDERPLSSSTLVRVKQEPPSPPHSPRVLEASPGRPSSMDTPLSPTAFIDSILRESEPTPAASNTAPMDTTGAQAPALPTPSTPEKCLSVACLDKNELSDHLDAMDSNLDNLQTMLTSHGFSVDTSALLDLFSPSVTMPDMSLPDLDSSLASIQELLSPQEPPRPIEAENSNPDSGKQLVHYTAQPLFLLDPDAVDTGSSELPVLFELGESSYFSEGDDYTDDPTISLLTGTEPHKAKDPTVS

T1 sequence (P65502 whole entry): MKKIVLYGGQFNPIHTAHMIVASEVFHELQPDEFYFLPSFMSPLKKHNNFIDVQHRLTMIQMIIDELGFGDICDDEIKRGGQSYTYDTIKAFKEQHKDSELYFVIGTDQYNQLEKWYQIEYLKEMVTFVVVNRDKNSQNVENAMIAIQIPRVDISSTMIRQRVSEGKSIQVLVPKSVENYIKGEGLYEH

Structure (SMILES): Cn1c(SCC(=O)N2c3ccccc3CCc3ccccc32)nnc1-c1cc2ccccc2cc1O
- IC50 [1]: 24.5 µM (active)
- IC50 [2]: > 50 µM (not active)
- CC50 [3]: > 50 µM (active)
- IC50 [4]: 7.15 µM (active)

Structure (SMILES): Cc1csc(SCC(=O)NCc2ccccc2Cl)n1
- IC50 [2]: > 50 µM (not active)

Structure (SMILES): Cc1ccc(C(=O)Nc2ccc3c(c2)OCCO3)c(Cl)c1
- AC50 [5]: > 52 µM (inactive)
- EC50 [6]: 6.61 µM (inconclusive)
- AC50 [7]: 1.27 µM (active)
- EC50 [8]: 3.89 µM (active)
- AC50 [9]: 3.65 µM (active)
- AC50 [10]: 3.76 µM (active)
- EC50 [11]: 5.14 µM (active)

Structure (SMILES): COc1ccc(OCC(=O)Nc2cccc3ncccc23)cc1
- IC50 [2]: > 50 µM (not active)

Structure (SMILES): CC(=O)Nc1ccc(S(=O)(=O)[N-]C2=C(n3cc[n+](-c4ccccn4)c3)C(=O)c3ccccc3C2=O)cc1
- IC50 [12]: 6.71 µM (active)
- EC50 [13]: 3.46 µM (active)
- AC50 [14]: 3.92 µM (active)
- IC50 [15]: > 80 µM (inactive)

Structure (SMILES): CCCNC1=C(C)C(=O)C2=C(C1=O)[C@H](COC(N)=O)[C@]1(OC)[C@@H]3N[C@@H]3CN21
- GI50 [16]: 4.66 µM (inactive)
- GI50 [17]: 4.36 µM (inactive)
- GI50 [18]: 0.32 µM (active)

Structure (SMILES): Cc1ccc(C(C)(C)C[P+](C)(c2ccccc2)c2ccccc2)cc1
- GI50 [16]: > 100 µM (inactive)
- GI50 [17]: 6.49 µM (inactive)
- GI50 [18]: 0.508 µM (active)

Structure (SMILES): COc1ccc2c(c1)c1c(C)c3cnccc3c(C)c1n2CCCN
- GI50 [16]: 0.185 µM (active)
- GI50 [17]: 0.102 µM (active)
- GI50 [18]: 0.0505 µM (active)

Structure (SMILES): CC(=O)Nc1cccc(/N=N/N(C)C)c1
- GI50 [16]: > 100 µM (inactive)
- GI50 [17]: > 57.5 µM (inactive)
- GI50 [18]: > 100 µM (inactive)

Structure (SMILES): CCCC(O)C(NC(=O)CCl)C(=O)O (configuration not stated)
- GI50 [16]: > 100 µM (inactive)
- GI50 [17]: > 100 µM (inactive)
- GI50 [18]: > 100 µM (inactive)

Structure (SMILES): CSCCC(NC(=O)C(Cc1ccccc1)NC(=O)CNC(=O)CNC(=O)C(N)Cc1ccc(O)cc1)C(=O)O (configuration not stated)
- GI50 [16]: > 100 µM (inactive)
- GI50 [17]: > 100 µM (inactive)
- GI50 [18]: > 100 µM (inactive)

Structure (SMILES): COC(=O)c1cccc(Cn2c(Cl)c(/C=N/Nc3ccccc3C)sc2=O)c1
- IC50 [19]: > 69.5 µM (inactive)
- EC50 [20]: 61.2 µM (active)

Source: ChEMBL document CHEMBL1201862, “PubChem BioAssay data set” (2004)
